Source: PubChem BioAssay AID248 (DTP/NCI, 2004)
Values joined by “and” are separate entries in the source; they are usually repeats but may differ in a detail not shown here. Equal entries are not always repeated. Toxic doses and inconclusive results are not listed. No stated cut-off is given here; in the data, active means T/C of 150% or more; inactive means T/C below 125%.

System: L1210 leukemia ip in BDF1 mice, survival T/C
Assay: NCI In Vivo Anticancer Drug Screen. Data for tumor model L1210 Leukemia (intraperitoneal) in B6D2F1 (BDF1) mice
Conditions: endpoint: mean survival time, higher = longer survival
How it was run: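 Value reflects the ratio of survival in compound-treated mice to survival in vehicle-treated controls, with both groups carrying the same transplanted tumor.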

[1] = dose: 100.0 mg/kg/injection, schedule: Q01DX009 (ip), vehicle: saline
[2] = dose: 200.0 mg/kg/injection, schedule: Q01DX009 (ip), vehicle: saline
[3] = dose: 400.0 mg/kg/injection, schedule: Q01DX009 (ip), vehicle: saline
[4] = dose: 100.0 mg/kg/injection, schedule: Q01DX009 (ip), vehicle: Klucel (hydroxypropylcellulose) (HPC)
[5] = dose: 100.0 mg/kg/injection, schedule: Q04DX003 (ip), vehicle: Klucel (hydroxypropylcellulose) (HPC)
[6] = dose: 200.0 mg/kg/injection, schedule: Q01DX009 (ip), vehicle: Klucel (hydroxypropylcellulose) (HPC)
[7] = dose: 200.0 mg/kg/injection, schedule: Q04DX003 (ip), vehicle: Klucel (hydroxypropylcellulose) (HPC)
[8] = dose: 400.0 mg/kg/injection, schedule: Q04DX003 (ip), vehicle: Klucel (hydroxypropylcellulose) (HPC)
[9] = dose: 100.0 mg/kg/injection, schedule: Q01DX009 (ip), vehicle: saline with Tween-80
[10] = dose: 200.0 mg/kg/injection, schedule: Q01DX009 (ip), vehicle: saline with Tween-80
[11] = dose: 400.0 mg/kg/injection, schedule: Q01DX009 (ip), vehicle: saline with Tween-80
[12] = dose: 50.0 mg/kg/injection, schedule: Q01DX009 (ip), vehicle: Klucel (hydroxypropylcellulose) (HPC)
[13] = dose: 100.0 mg/kg/injection, schedule: Q04DX002 (ip), vehicle: Klucel (hydroxypropylcellulose) (HPC)
[14] = dose: 100.0 mg/kg/injection, schedule: Q01DX001 (ip), vehicle: saline
[15] = dose: 200.0 mg/kg/injection, schedule: Q01DX001 (ip), vehicle: saline

Measured: T/C

CNC(=O)NCc1cccnc1
inactive: [1] 111 % of control | [2] 103 % of control | [3] 114 % of control

O=C(O)c1ccc(NC(=O)c2ccc(C(=O)Nc3ccc(C(=O)O)cc3)cc2)cc1
inactive: dose: 15.0 mg/kg/injection, schedule: Q01DX Z (ip), vehicle: methylcellulose (MC) 101 % of control | dose: 60.0 mg/kg/injection, schedule: Q01DX Z (ip), vehicle: methylcellulose (MC) 98 % of control | dose: 120.0 mg/kg/injection, schedule: Q01DX Z (ip), vehicle: methylcellulose (MC) 95 % of control

CN(C)c1ccc(C=C(C#N)C#N)cc1
inactive: [4] 100 % of control | [5] 96 % of control and 98 % of control | [6] 105 % of control | [7] 97 % of control and 102 % of control | dose: 400.0 mg/kg/injection, schedule: Q01DX009 (ip), vehicle: Klucel (hydroxypropylcellulose) (HPC) 94 % of control | [8] 93 % of control and 92 % of control

CC(Br)C(=O)OCc1ccccc1 (stereo not given)
inactive: [1] 91 % of control | [2] 91 % of control | [3] 93 % of control

Nc1c(Cl)c(Cl)cc(Cl)c1Cl
inactive: [9] 102 % of control | [10] 100 % of control | [11] 95 % of control

c1ccc(CNCc2ccccc2)cc1
inactive: [12] 93 % of control | [4] 93 % of control | [5] 95 % of control | [6] 100 % of control | [7] 95 % of control

CN(C)c1ccc(/C=N/NC(=O)CNC(=O)c2ccc(Cl)cc2Cl)cc1
inactive: dose: 50.0 mg/kg/injection, schedule: Q01DX009 (ip), vehicle: saline with Tween-80 86 % of control | [9] 88 % of control

COc1cccc(C2N(Cc3ccc(N(CCCl)CCCl)cc3C)CCCN2Cc2ccc(N(CCCl)CCCl)cc2C)c1O
inactive: dose: 50.0 mg/kg/injection, schedule: Q01DX001 (ip), vehicle: carboxymethylcellulose (CMC) 116 % of control | dose: 100.0 mg/kg/injection, schedule: Q01DX001 (ip), vehicle: carboxymethylcellulose (CMC) 120 % of control | dose: 200.0 mg/kg/injection, schedule: Q01DX001 (ip), vehicle: carboxymethylcellulose (CMC) 100 % of control

NNC(=O)CSSCC(=O)NN
inactive: [13] 101 % of control

O=C1OC(=O)C2C(c3ccccc3)=CC(c3ccccc3)=CC12 (stereo not given)
inactive: [14] 98 % of control | [15] 107 % of control | dose: 400.0 mg/kg/injection, schedule: Q01DX001 (ip), vehicle: saline 102 % of control

Nc1ccc2nc3ccc(N)cc3[n+](-c3ccccc3)c2c1
inactive: dose: 5.0 mg/kg/injection, schedule: Q01DX001 (ip), vehicle: other 111 % of control | dose: 10.0 mg/kg/injection, schedule: Q01DX001 (ip), vehicle: other 108 % of control | dose: 18.0 mg/kg/injection, schedule: Q01DX001 (ip), vehicle: other 101 % of control and 103 % of control | dose: 20.0 mg/kg/injection, schedule: Q01DX001 (ip), vehicle: other 108 % of control | dose: 27.0 mg/kg/injection, schedule: Q01DX001 (ip), vehicle: other 106 % of control and 118 % of control | dose: 40.0 mg/kg/injection, schedule: Q01DX001 (ip), vehicle: other 110 % of control and 114 % of control | dose: 60.0 mg/kg/injection, schedule: Q01DX001 (ip), vehicle: other 104 % of control

c1ccc(C(N2CCN(c3ccccc3)CC2)N2CCN(c3ccccc3)CC2)cc1
inactive: [13] 94 % of control | dose: 200.0 mg/kg/injection, schedule: Q04DX002 (ip), vehicle: Klucel (hydroxypropylcellulose) (HPC) 94 % of control | dose: 400.0 mg/kg/injection, schedule: Q04DX002 (ip), vehicle: Klucel (hydroxypropylcellulose) (HPC) 94 % of control

CC(=O)Oc1cccc2ccc(/C=C/c3cccc[n+]3C)nc12
inactive: dose: 4.0 mg/kg/injection, schedule: Q01DX015 (ip), vehicle: carboxymethylcellulose (CMC) 95 % of control | dose: 8.0 mg/kg/injection, schedule: Q01DX015 (ip), vehicle: carboxymethylcellulose (CMC) 107 % of control | dose: 16.0 mg/kg/injection, schedule: Q01DX015 (ip), vehicle: carboxymethylcellulose (CMC) 97 % of control | dose: 32.0 mg/kg/injection, schedule: Q01DX015 (ip), vehicle: carboxymethylcellulose (CMC) 102 % of control

O=C(O)c1ccccc1CCl
inactive: [9] 101 % of control | [10] 108 % of control | [11] 95 % of control

CCOC(=O)C(Cc1ccccc1)N=NNc1nc[nH]c1C(N)=O (stereo not given)
inactive: dose: 375.0 mg/kg/injection, schedule: Q01DX001 (ip), vehicle: carboxymethylcellulose (CMC) 96 % of control | dose: 500.0 mg/kg/injection, schedule: Q01DX001 (ip), vehicle: carboxymethylcellulose (CMC) 106 % of control

Cc1ccc(NC(=O)COc2cc(Cl)c(Cl)cc2Cl)cc1[N+](=O)[O-]
inactive: dose: 25.0 mg/kg/injection, schedule: Q01DX009 (ip), vehicle: Klucel (hydroxypropylcellulose) (HPC) 86 % of control | [12] 100 % of control | dose: 75.0 mg/kg/injection, schedule: Q01DX009 (ip), vehicle: Klucel (hydroxypropylcellulose) (HPC) 100 % of control and 92 % of control

CC(C)(C(=O)OCCOCCCl)c1cccc2ccccc12
inactive: dose: 100.0 mg/kg/injection, schedule: Q04DX002 (ip), vehicle: saline with Tween-80 113 % of control | dose: 200.0 mg/kg/injection, schedule: Q04DX002 (ip), vehicle: saline with Tween-80 111 % of control | dose: 400.0 mg/kg/injection, schedule: Q04DX002 (ip), vehicle: saline with Tween-80 95 % of control

NC(N)=N/N=C(C(=O)O)/C(=N\N=C(N)N)C(=O)O
inactive: dose: 30.0 mg/kg/injection, schedule: Q01DX Z (oral), vehicle: carboxymethylcellulose (CMC) 101 % of control | dose: 60.0 mg/kg/injection, schedule: Q01DX Z (oral), vehicle: carboxymethylcellulose (CMC) 101 % of control | dose: 120.0 mg/kg/injection, schedule: Q01DX Z (oral), vehicle: carboxymethylcellulose (CMC) 101 % of control | dose: 240.0 mg/kg/injection, schedule: Q01DX Z (oral), vehicle: carboxymethylcellulose (CMC) 109 % of control | dose: 480.0 mg/kg/injection, schedule: Q01DX Z (oral), vehicle: carboxymethylcellulose (CMC) 106 % of control | dose: 960.0 mg/kg/injection, schedule: Q01DX Z (oral), vehicle: carboxymethylcellulose (CMC) 106 % of control

[O-]/[N+](=C\c1ccccc1)c1ccccc1
inactive: dose: 50.0 mg/kg/injection, schedule: Q01DX001 (ip), vehicle: saline 110 % of control | [14] 110 % of control | [15] 108 % of control

CCOC(=O)CCN(Cc1ccccc1)C(=S)Nc1ccccc1
inactive: dose: 25.0 mg/kg/injection, schedule: Q01DX Z (ip), vehicle: methylcellulose (MC) 98 % of control

O=c1ccn(C2OC(CF)C(O)C2O)c(=O)[nH]1 (stereo not given)
inactive: dose: 100.0 mg/kg/injection, schedule: Q01DX005 (ip), vehicle: saline 104 % of control | [5] 106 % of control | dose: 200.0 mg/kg/injection, schedule: Q01DX005 (ip), vehicle: saline 104 % of control | [7] 110 % of control | [8] 101 % of control

O=C(COc1ccc(Cl)cc1C(=O)O)NCc1cccc(NC(=O)Nc2ccc(S(=O)(=O)F)cc2)c1
inactive: dose: 100.0 mg/kg/injection, schedule: Q01DX001 (ip), vehicle: Klucel (hydroxypropylcellulose) (HPC) 96 % of control | dose: 200.0 mg/kg/injection, schedule: Q01DX001 (ip), vehicle: Klucel (hydroxypropylcellulose) (HPC) 104 % of control | dose: 400.0 mg/kg/injection, schedule: Q01DX001 (ip), vehicle: Klucel (hydroxypropylcellulose) (HPC) 105 % of control
